Each structure is given as a SMILES string.

Data on 1 compound can be found in article PMC9900472 (ACS chemical biology, 2022).

Assay [1] has as its target T1, C. elegans iPGM (Caenorhabditis elegans, UniProt G5EFZ1).
T1 sequence (G5EFZ1 1-539): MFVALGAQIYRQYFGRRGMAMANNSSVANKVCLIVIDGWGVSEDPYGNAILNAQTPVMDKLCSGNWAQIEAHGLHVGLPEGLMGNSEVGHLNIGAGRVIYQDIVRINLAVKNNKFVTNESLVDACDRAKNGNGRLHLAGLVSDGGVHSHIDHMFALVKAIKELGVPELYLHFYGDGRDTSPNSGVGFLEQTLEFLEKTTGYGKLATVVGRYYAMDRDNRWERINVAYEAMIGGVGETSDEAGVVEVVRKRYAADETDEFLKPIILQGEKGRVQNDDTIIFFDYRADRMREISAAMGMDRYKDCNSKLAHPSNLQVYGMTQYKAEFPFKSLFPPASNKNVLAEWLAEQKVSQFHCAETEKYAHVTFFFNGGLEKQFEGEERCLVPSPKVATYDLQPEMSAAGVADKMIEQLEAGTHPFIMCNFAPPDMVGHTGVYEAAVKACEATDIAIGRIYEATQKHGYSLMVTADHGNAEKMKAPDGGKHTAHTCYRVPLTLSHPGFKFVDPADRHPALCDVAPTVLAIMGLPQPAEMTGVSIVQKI
The experiment in a line: luminescent coupled-enzyme ATP-quantifying iPGM assay, C. elegans iPGM. The assay is classed as biochemical.

Assay [2] addresses T2, W. bancrofti iPGM (Wuchereria bancrofti, UniProt B1P0R4).
T2 sequence (B1P0R4 1-515): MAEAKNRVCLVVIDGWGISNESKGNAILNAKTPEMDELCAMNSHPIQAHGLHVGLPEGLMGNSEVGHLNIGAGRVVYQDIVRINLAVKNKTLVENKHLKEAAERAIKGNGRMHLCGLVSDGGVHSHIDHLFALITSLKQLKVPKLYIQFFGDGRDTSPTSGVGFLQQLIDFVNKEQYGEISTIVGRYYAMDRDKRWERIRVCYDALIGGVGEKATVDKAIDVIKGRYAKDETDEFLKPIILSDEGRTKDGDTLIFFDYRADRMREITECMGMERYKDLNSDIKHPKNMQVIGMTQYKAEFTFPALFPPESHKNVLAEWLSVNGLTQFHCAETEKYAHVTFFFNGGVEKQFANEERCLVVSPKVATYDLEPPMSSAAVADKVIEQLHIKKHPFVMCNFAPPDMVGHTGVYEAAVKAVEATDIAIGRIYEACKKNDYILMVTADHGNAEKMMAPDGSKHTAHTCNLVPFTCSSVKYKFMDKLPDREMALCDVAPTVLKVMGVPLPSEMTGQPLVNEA
The experiment in a line: biochemical.

Assay [3] deals with T3, H. pylori iPGM (Helicobacter pylori, UniProt B5Z7X6).
T3 sequence (B5Z7X6 1-491): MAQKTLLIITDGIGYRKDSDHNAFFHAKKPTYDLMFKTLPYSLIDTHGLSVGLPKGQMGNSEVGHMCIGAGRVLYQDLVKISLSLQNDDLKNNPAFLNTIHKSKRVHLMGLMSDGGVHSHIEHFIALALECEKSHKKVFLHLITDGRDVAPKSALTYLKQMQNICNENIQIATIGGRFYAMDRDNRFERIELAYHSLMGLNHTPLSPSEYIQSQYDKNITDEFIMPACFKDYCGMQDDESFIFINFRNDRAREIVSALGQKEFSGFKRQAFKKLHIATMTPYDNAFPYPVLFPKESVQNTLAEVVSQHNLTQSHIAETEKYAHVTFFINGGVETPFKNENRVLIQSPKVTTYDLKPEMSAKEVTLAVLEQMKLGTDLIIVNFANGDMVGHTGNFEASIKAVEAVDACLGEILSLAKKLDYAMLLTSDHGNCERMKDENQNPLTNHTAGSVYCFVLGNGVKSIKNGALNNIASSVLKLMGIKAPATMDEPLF
The experiment in a line: biochemical.

The target in assay [4] is E. coli iPGM (Escherichia coli, UniProt P37689). Description: luminescent coupled-enzyme ATP-quantifying iPGM assay, E. coli iPGM. The assay is classed as biochemical.
Chain of E. coli iPGM (P37689 whole entry): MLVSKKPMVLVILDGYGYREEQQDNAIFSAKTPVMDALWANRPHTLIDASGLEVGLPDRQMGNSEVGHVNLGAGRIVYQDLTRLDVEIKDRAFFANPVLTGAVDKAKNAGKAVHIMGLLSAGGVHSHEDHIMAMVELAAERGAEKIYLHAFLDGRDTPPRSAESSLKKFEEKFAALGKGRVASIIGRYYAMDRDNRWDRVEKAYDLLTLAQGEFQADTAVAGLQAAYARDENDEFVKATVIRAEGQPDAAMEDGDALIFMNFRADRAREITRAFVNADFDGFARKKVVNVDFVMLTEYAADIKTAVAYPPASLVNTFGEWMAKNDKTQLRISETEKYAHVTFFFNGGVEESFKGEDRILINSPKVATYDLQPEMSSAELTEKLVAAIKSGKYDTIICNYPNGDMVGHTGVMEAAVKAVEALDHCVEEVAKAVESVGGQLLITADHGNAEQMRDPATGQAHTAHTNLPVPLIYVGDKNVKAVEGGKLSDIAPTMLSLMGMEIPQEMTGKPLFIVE
For assay [5], the target named is B. malayi iPGM (Brugia malayi, UniProt Q4VWF8). Description: luminescent coupled-enzyme ATP-quantifying iPGM assay, B. malayi iPGM. The assay is classed as biochemical.
Chain of B. malayi iPGM (Q4VWF8 whole entry): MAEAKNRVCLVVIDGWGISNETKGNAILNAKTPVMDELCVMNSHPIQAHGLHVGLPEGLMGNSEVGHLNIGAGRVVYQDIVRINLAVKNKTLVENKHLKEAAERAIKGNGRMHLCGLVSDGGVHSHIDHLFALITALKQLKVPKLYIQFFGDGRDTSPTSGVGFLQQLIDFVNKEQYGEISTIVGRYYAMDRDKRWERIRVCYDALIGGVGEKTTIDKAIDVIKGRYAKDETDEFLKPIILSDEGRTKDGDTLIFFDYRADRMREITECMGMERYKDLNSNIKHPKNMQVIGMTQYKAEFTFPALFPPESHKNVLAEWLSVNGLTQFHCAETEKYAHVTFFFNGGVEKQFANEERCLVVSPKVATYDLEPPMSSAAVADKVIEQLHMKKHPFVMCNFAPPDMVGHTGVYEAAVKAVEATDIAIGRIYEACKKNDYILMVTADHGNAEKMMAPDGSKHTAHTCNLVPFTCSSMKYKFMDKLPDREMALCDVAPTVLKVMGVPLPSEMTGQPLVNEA

Turning to `CC(C)C[C@H](NC(=O)[C@H](Cc1ccc(O)cc1)NC(=O)[C@@H]1CSCC(=O)N[C@H](Cc2ccc(O)cc2)C(=O)N[C@@H](CC(=O)O)C(=O)N[C@@H](Cc2ccc(O)cc2)C(=O)N2CCC[C@H]2C(=O)NCC(=O)N[C@@H](CC(=O)O)C(=O)N[C@@H](Cc2ccc(O)cc2)C(=O)N1)C(=O)N[C@@H](Cc1ccc(O)cc1)C(=O)NCC(=O)N[C@H](C(=O)N[C@@H](CS)C(N)=O)[C@@H](C)O` [Ce-2], the AC50 is 2.45 nM in assay [1]; 2.34 nM in assay [2]; 3630 nM in assay [3]; 316 nM in assay [4]; 2.69 nM in assay [5].

Usually AC50 stands for the midpoint of the concentration-response curve, whichever way the signal moves. Lower therefore signals activity at low concentration.
